Literature values in patent publication US20140010866A1, “METHODS AND SYSTEMS FOR TREATMENT OF MIGRAINES AND OTHER INDICATIONS” (Strategic Science & Technologies, LLC, priority 2010, published 2014).

Row | Structure (SMILES) | pKa
1 | CN(C)CCc1c[nH]c2ccc(CS(=O)(=O)N3CCCC3)cc12 [almotriptan] | 8.77
2 | CN[C@@H]1CCc2[nH]c3ccc(C(N)=O)cc3c2C1 [frovatriptan] | 17.27
3 | CC(C)C[C@H]1C(=O)N2CCC[C@H]2[C@]2(O)O[C@](NC(=O)[C@@H]3C=C4c5cccc6[nH]c(Br)c(c56)C[C@H]4N(C)C3)(C(C)C)C(=O)N12 [bromocriptine] | 11.13
4 | CN(C)CCc1c[nH]c2ccc(C[C@H]3COC(=O)N3)cc12 [zolmitriptan] | 17.15
5 | CC(C)[C@H]1C(=O)N2CCC[C@H]2[C@]2(O)O[C@@](C)(NC(=O)[C@@H]3C=C4c5cccc6[nH]cc(c56)C[C@H]4N(C)C3)C(=O)N12 [ergovaline] | 11.64
6 | CNS(=O)(=O)CCc1ccc2[nH]cc(C3CCN(C)CC3)c2c1 [naratriptan] | 17.11
